Laboratory results reported in patent US9833497B2, “Human originated EGF domain proteins and use of the same” (CHENGDU SOURCEBIO LIMITED-LIABILITY COMPANY, priority 2013, dated 2017).

Legend:
Assay type in all cases: cell-based
E. coli BL21 = experiment: MIC against Gram-negative bacteria: E. coli BL21; settings: for MIC against E. coli BL21 / MIC (μg/mL) E. coli BL21: 5×10^5 CFU/mL
In short: (§1)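 Two-fold serial dilutions of each purified human EGF domain protein, three replicate wells per level, were combined with bacteria at a final 5×10^5 CFU/mL in LB. Cultures were shaken at 175 rpm, 37° C. The MIC was taken as the minimum concentration preventing growth.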

Proteus vulgaris = experiment: MIC against Gram-negative bacteria: Proteus vulgaris; settings: for MIC against P. vulgaris / MIC (μg/mL) P. vulgaris: 5×10^5 CFU/mL
In short: as §1

Enterobacter cloacae = experiment: MIC against Gram-negative bacteria: Enterobacter cloacae; settings: for MIC against E. cloacae / MIC (μg/mL) E. cloacae: 5×10^5 CFU/mL
In short: as §1

Pseudomonas aeruginosa = experiment: MIC against Gram-negative bacteria: Pseudomonas aeruginosa; settings: for MIC against P. aeruginosa / MIC (μg/mL) P. aeruginosa: 5×10^5 CFU/mL
In short: as §1

Serratia marcescens = experiment: MIC against Gram-negative bacteria: Serratia marcescens; settings: for MIC against S. marcescens / MIC (μg/mL) S. marcescens: 5×10^5 CFU/mL
In short: as §1

Citrobacter diversus = experiment: MIC against Gram-negative bacteria: Citrobacter diversus; settings: for MIC against C. diversus / MIC (μg/mL) C. diversus: 5×10^5 CFU/mL
In short: as §1

Aeromonas hydrophila = experiment: MIC against Gram-negative bacteria: Aeromonas hydrophila; settings: for MIC against A. hydrophila / MIC (μg/mL) A. hydrophila: 5×10^5 CFU/mL
In short: as §1

Klebsiella pneumonia = experiment: MIC against Gram-negative bacteria: Klebsiella pneumonia; settings: for MIC against K. pneumonia / MIC (μg/mL) K. pneumonia: 5×10^5 CFU/mL
In short: as §1

E. coli DH5α = experiment: Antibacterial activity: MIC and growth curve against E. coli DH5α in 96-well plate; settings: minimal inhibitory concentration against E. coli DH5α; 96-well plate, 5×10^5 CFU/mL, 37° C., judged after 8 h
In short: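 Log-phase bacteria (OD600 ~0.5) resuspended in LB at 5×10^5 CFU/mL, exposed to recombinant protein at 50, 25, 12.5 μg/mL final in triplicate, 37 °C shaking at 175 rpm. OD600 read every 30 min; MIC is lowest concentration showing no growth.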

Moraxella catarrhalis = experiment: MIC against Gram-negative bacteria: Moraxella catarrhalis; settings: for MIC against M. catarrhalis / MIC (μg/mL) M. catarrhalis: 5×10^5 CFU/mL
In short: as §1

Proteus mirabilis = experiment: MIC against Gram-negative bacteria: Proteus mirabilis; settings: for MIC against P. mirabilis / MIC (μg/mL) P. mirabilis: 5×10^5 CFU/mL
In short: as §1

[1] = E. coli BL21, 10 h cultivation at 37° C.
[2] = P. vulgaris, 10 h cultivation at 37° C.
[3] = E. cloacae, 10 h cultivation at 37° C.
[4] = P. aeruginosa, 10 h cultivation at 37° C.
[5] = S. marcescens, 10 h cultivation at 37° C.
[6] = C. diversus, 10 h cultivation at 37° C.
[7] = A. hydrophila, 10 h cultivation at 37° C.
[8] = K. pneumonia, 10 h cultivation at 37° C.
[9] = M. catarrhalis, 10 h cultivation at 37° C.
[10] = P. mirabilis, 10 h cultivation at 37° C.

Substance: PRT1233 (ISEPCPSYCSGHGDCISGVCFCDLGYTAAQGTCV; listed as Homo sapiens)
- MIC against E. coli BL21 (E. coli BL21; E. coli BL21, 96-well plate, 37° C., 10 h): 12.5 µg/mL
- MIC against P. vulgaris (Proteus vulgaris; Proteus vulgaris, 96-well plate, 37° C., 10 h): 12.5 µg/mL
- MIC against E. cloacae (Enterobacter cloacae; Enterobacter cloacae, 96-well plate, 37° C., 10 h): 12.5 µg/mL
- MIC against P. aeruginosa (Pseudomonas aeruginosa; Pseudomonas aeruginosa, 96-well plate, 37° C., 10 h): 25 µg/mL
- MIC against S. marcescens (Serratia marcescens; Serratia marcescens, 96-well plate, 37° C., 10 h): 25 µg/mL
- MIC against C. diversus (Citrobacter diversus; Citrobacter diversus, 96-well plate, 37° C., 10 h): 12.5 µg/mL
- MIC against A. hydrophila (Aeromonas hydrophila; Aeromonas hydrophila, 96-well plate, 37° C., 10 h): 50 µg/mL
- MIC against K. pneumonia (Klebsiella pneumonia; Klebsiella pneumonia, 96-well plate, 37° C., 10 h): 50 µg/mL
- MIC (E. coli DH5α): 25 µg/mL
- MIC against M. catarrhalis (Moraxella catarrhalis; Moraxella catarrhalis, 96-well plate, 37° C., 10 h): 50 µg/mL
- MIC against P. mirabilis (Proteus mirabilis; Proteus mirabilis, 96-well plate, 37° C., 10 h): 25 µg/mL

Substance: PRT750 (DIDECQVAPGEAPTCDHHCHNHLGGFYCSCRAGYVLHRNKRTCS; listed as Homo sapiens)
- MIC (μg/mL) E. coli BL21 (E. coli BL21; [1]): 12.5 µg/mL
- MIC (μg/mL) P. vulgaris (Proteus vulgaris; [2]): 12.5 µg/mL
- MIC (μg/mL) E. cloacae (Enterobacter cloacae; [3]): 12.5 µg/mL
- MIC (μg/mL) P. aeruginosa (Pseudomonas aeruginosa; [4]): 50 µg/mL
- MIC (μg/mL) S. marcescens (Serratia marcescens; [5]): 50 µg/mL
- MIC (μg/mL) C. diversus (Citrobacter diversus; [6]): 50 µg/mL
- MIC (μg/mL) A. hydrophila (Aeromonas hydrophila; [7]): 25 µg/mL
- MIC (μg/mL) K. pneumonia (Klebsiella pneumonia; [8]): 25 µg/mL
- MIC (E. coli DH5α): 25 µg/mL
- MIC (μg/mL) M. catarrhalis (Moraxella catarrhalis; [9]): 12.5 µg/mL
- MIC (μg/mL) P. mirabilis (Proteus mirabilis; [10]): 50 µg/mL

Substance: PRT569 (CDCDLGGALNNSCFAESGQCSCRPHMIGRQC; listed as Homo sapiens)
- MIC against E. coli BL21 (E. coli BL21; 96-well plate, 37° C., 10 h): 12.5 µg/mL
- MIC against P. vulgaris (Proteus vulgaris; 96-well plate, 37° C., 10 h): 25 µg/mL
- MIC against E. cloacae (Enterobacter cloacae; 96-well plate, 37° C., 10 h): 12.5 µg/mL
- MIC against P. aeruginosa (Pseudomonas aeruginosa; 96-well plate, 37° C., 10 h): 25 µg/mL
- MIC against S. marcescens (Serratia marcescens; 96-well plate, 37° C., 10 h): 12.5 µg/mL
- MIC against C. diversus (Citrobacter diversus; 96-well plate, 37° C., 10 h): 100 µg/mL
- MIC against A. hydrophila (Aeromonas hydrophila; 96-well plate, 37° C., 10 h): 25 µg/mL
- MIC against K. pneumonia (Klebsiella pneumonia; 96-well plate, 37° C., 10 h): 12.5 µg/mL
- MIC (E. coli DH5α): 25 µg/mL
- MIC against M. catarrhalis (Moraxella catarrhalis; 96-well plate, 37° C., 10 h): 25 µg/mL
- MIC against P. mirabilis (Proteus mirabilis; 96-well plate, 37° C., 10 h): 12.5 µg/mL

Substance: PRT1352 (SEPECPGNCHLRGRCIDGQCICDDGFTGEDCS; listed as Homo sapiens)
- MIC against E. coli BL21 (E. coli BL21; [1]): 12.5 µg/mL
- MIC against P. vulgaris (Proteus vulgaris; Proteus vulgaris, 10 h cultivation at 37° C.): 50 µg/mL
- MIC against E. cloacae (Enterobacter cloacae; Enterobacter cloacae, 10 h cultivation at 37° C.): 12.5 µg/mL
- MIC against P. aeruginosa (Pseudomonas aeruginosa; Pseudomonas aeruginosa, 10 h cultivation at 37° C.): 12.5 µg/mL
- MIC against S. marcescens (Serratia marcescens; Serratia marcescens, 10 h cultivation at 37° C.): 25 µg/mL
- MIC against C. diversus (Citrobacter diversus; Citrobacter diversus, 10 h cultivation at 37° C.): 50 µg/mL
- MIC against A. hydrophila (Aeromonas hydrophila; Aeromonas hydrophila, 10 h cultivation at 37° C.): 12.5 µg/mL
- MIC against K. pneumonia (Klebsiella pneumonia; Klebsiella pneumonia, 10 h cultivation at 37° C.): 12.5 µg/mL
- MIC (E. coli DH5α): 12.5 µg/mL
- MIC against M. catarrhalis (Moraxella catarrhalis; Moraxella catarrhalis, 10 h cultivation at 37° C.): 12.5 µg/mL
- MIC against P. mirabilis (Proteus mirabilis; Proteus mirabilis, 10 h cultivation at 37° C.): 25 µg/mL

Substance: PRT887 (LNDACISNPCNEGSNCDTNPVNGKAICTCPSGYTGPACS; listed as Homo sapiens)
- MIC (μg/mL) E. coli BL21 (E. coli BL21; [1]): 25 µg/mL
- MIC (μg/mL) P. vulgaris (Proteus vulgaris; [2]): 12.5 µg/mL
- MIC (μg/mL) E. cloacae (Enterobacter cloacae; [3]): 50 µg/mL
- MIC (μg/mL) P. aeruginosa (Pseudomonas aeruginosa; [4]): 12.5 µg/mL
- MIC (μg/mL) S. marcescens (Serratia marcescens; [5]): 50 µg/mL
- MIC (μg/mL) C. diversus (Citrobacter diversus; [6]): 12.5 µg/mL
- MIC (μg/mL) A. hydrophila (Aeromonas hydrophila; [7]): 25 µg/mL
- MIC (μg/mL) K. pneumonia (Klebsiella pneumonia; [8]): 25 µg/mL
- MIC (E. coli DH5α): 12.5 µg/mL
- MIC (μg/mL) M. catarrhalis (Moraxella catarrhalis; [9]): 25 µg/mL
- MIC (μg/mL) P. mirabilis (Proteus mirabilis; [10]): 50 µg/mL

Substance: PRT1020 (SRQTCANNRHQCSVHAECRDYATGFCCSCVAGYTGNGRQCV; listed as Homo sapiens)
- MIC (E. coli BL21; [1]): 12.5 µg/mL
- MIC (Proteus vulgaris; [2]): 50 µg/mL
- MIC (Enterobacter cloacae; [3]): 12.5 µg/mL
- MIC (Pseudomonas aeruginosa; [4]): 12.5 µg/mL
- MIC (Serratia marcescens; [5]): 25 µg/mL
- MIC (Citrobacter diversus; [6]): 12.5 µg/mL
- MIC (Aeromonas hydrophila; [7]): 12.5 µg/mL
- MIC (Klebsiella pneumonia; [8]): 25 µg/mL
- MIC (E. coli DH5α): 12.5 µg/mL
- MIC (Moraxella catarrhalis; [9]): 12.5 µg/mL
- MIC (Proteus mirabilis; [10]): 12.5 µg/mL
